Entries after “also recorded” stand apart in the source; their conditions may differ.
Legend:
[1] = target: T1, Wild-type FLT-3 (Homo sapiens, UniProt P36888); assay: FLT-3 phosphorylation by immunoprecipitation/Western in RS411 cells; assay type: cell-based; for Wild-type FLT-3 (inhibition of phosphorylation): key: +++: very strong inhibition; ++: inhibition; +/−: weak inhibition; −: no inhibition
T1 construct: host or cells: RS411 (RS4;11)
T1 sequence (P36888 27-993): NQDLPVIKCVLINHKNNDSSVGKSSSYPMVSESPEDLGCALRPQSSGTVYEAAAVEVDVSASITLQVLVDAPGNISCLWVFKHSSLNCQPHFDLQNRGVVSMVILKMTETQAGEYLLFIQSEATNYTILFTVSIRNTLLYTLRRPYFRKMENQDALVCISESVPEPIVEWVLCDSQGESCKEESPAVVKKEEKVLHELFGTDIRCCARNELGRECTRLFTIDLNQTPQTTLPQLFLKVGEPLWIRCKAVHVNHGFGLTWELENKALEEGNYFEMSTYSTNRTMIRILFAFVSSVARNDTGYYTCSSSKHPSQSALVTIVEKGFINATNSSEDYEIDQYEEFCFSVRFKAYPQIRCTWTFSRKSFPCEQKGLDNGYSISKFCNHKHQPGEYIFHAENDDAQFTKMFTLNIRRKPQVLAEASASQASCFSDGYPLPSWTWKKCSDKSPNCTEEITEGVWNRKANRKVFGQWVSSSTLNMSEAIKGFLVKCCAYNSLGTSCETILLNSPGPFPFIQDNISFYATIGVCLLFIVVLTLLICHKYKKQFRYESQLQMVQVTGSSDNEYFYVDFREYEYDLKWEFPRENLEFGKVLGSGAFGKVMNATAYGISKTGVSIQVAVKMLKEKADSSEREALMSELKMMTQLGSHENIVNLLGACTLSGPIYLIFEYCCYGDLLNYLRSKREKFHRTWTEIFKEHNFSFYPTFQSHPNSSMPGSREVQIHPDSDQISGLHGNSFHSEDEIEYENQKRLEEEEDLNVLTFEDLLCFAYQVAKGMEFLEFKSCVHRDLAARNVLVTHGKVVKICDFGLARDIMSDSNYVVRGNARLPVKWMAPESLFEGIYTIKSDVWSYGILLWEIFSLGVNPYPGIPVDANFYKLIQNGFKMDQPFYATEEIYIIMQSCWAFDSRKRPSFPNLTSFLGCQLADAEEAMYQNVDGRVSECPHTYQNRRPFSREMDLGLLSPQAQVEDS
Method: FLT-3 was immunoprecipitated from lysates with a commercially available antibody. Proteins were separated by SDS-polyacrylamide gel electrophoresis, transferred to membranes analyzed by Western blotting for phosphotyrosine and subsequently for total FLT-3 protein as control. […]
Immunoprecipitation and Western Blot (IP/W) analysis: Cells were lysed in lysis buffer (20 mM Tris, pH 7.5; 137 mM NaCl; 10% glycerol; 1% NP-40; 0.1% SDS; 2 mM EDTA) containing protease and phosphatase inhibitors (50 mM sodium fluoride, 1 mM sodium orthovanadate, 2 mM Pefabloc, […], […], […], 4 mM leupeptin, and 4 mM pepstatin A). Equivalent amounts of protein were separated by SDS-PAGE, then transferred to nitrocellulose membranes. For analysis of FLT3 phosphorylation, equivalent amounts of protein from each sample were immunoprecipitated overnight at 4*C. with an agarose-conjugated anti-FLT3 antibody (Santa Cruz Biotechnology, Santa Cruz, Calif.). Immune complexes were washed (150 mM NaCl, 1.5 mM MgCl2, 50 mM HEPES, pH 7.5, 10% glycerol, 0.1% Triton X-100, and 1 mM EGTA) and following SDS-PAGE, proteins were transferred to nitrocellulose membranes. Membranes were probed with an anti-phosphotyrosine antibody (Upstate, Lake Placid, N.Y. or Transduction Laboratories, Lexington, Ky.) and then stripped with Restore Western Blot Stripping Buffer (Pierce, Rockford, Ill.). Membranes were reprobed with an anti-FLT3 antibody (Santa Cruz Biotechnology). Stat5 antibodies for immunprecipitation and Western blot analysis were from Upstate Biotechnology and Transduction labs respectively.

[2] = test system: FLT-3-ITD; assay: FLT-3 phosphorylation in resected xenograft tumors; assay type: in vivo, athymic mice; settings: 4 hour treatment
Method: (§1) Tumor cells, MV411 in the example shown were implanted subcutaneously in the hindflank of athymic mice. […] For measurement of efficacy, tumor growth was measured at various subsequent time points using vernier calipers. For analysis of phosphorylation, tumors were resected following dosing (4 hours here), pulverized in liquid nitrogen and homogenized in lysis buffer. FLT-3 and Stat5 phosphorylation were measured by immunoprecipitation and Western blot analysis.
(§2) Athymic mice were injected subcutaneously with MV411 and RS411 cells to cause tumor formation.

[3] = Bone marrow model, survival; assay type: in vivo, NOD-SCID mice; settings: orally once daily
Method: NOD-SCID mice were pretreated with cyclophosphamide (Neosar, Pharmacia, Kalamazoo, Mich.) by intraperitoneal injection of 150 mg/kg/day for 2 days ^(46), followed by 24 hours of rest prior to intravenous (i.v.) injection of 5×10^6 cells via the tail vein. At experimental endpoints, mice were anesthetized, followed by terminal blood collection via intracardiac puncture. Bone marrow cell suspensions were prepared by flushing mouse femurs with cold, sterile PBS. For all studies, a paired Student's t test was used to assess differences between treated and control groups (P<0.05 was considered significant).

[4] = test system: erk½; assay: erk½ phosphorylation in OC1-AML5 cells; assay type: cell-based
Excerpt: Activation of downstream pathways by FLT-3 ligand was also investigated, specifically for Stat5 and erk. Stat5 and Erk are downstream mediators of RTK signaling, and may provide readouts for FLT-3 signaling. Stat 5 is a transcription factor which regulates many genes involves in cell survival and proliferation. Erk½ are kinases on the Raf signaling pathway.

[5] = test system: RS411 (wild type FLT-3); assay: Cell proliferation, RS411; assay type: cell-based
[6] = test system: MV411 tumors; assay: Subcutaneous MV411 tumor model, tumor growth; assay type: in vivo, athymic mice; settings: within 4 days of treatment
Method: as §1, §2

[7] = test system: OC1-AML5 cell line; assay: Cell viability (trypan blue) and proliferation (alamar blue) with FLT-3 ligand; assay type: cell-based; settings: trypan blue and alamar blue assays
Excerpt: The first cell line used was the OC1-AML5 cell line known to express the FLT-3 tyrosine kinase. This cell line was maintained in conventional medium containing cytokines to maintain growth in liquid culture. This cell line provides a model to assess activation and inhibition of FLT-3 signaling by FLT-3 ligand and compounds which may inhibit FLT-3. The biological consequences of FLT-3 can be assessed with this cell line.
The OC1-AML5 cell line which express FLT-3-wild type was obtained (Pharmacia).

CCN(CC)CCNC(=O)c1c(C)[nH]c(/C=C2\C(=O)Nc3ccc(F)cc32)c1C [Compound 1, 5-(5-Fluoro-2-oxo-1,2-dihydro-indol-3-ylidenemethyl)-2,4-dimethyl-1H-pyrrole-3-carboxylic acid(2-diethylamino-ethyl)-amide]
Wild-type FLT-3 (inhibition of phosphorylation) ([1]; RS411 cells, IP/Western): ++ | inhibition of wild-type FLT-3 phosphorylation ([1]; in words): inhibits | activated FLT-3 in tumors [2]: completely inhibited; also recorded: inhibits | dose with highest efficacy on survival [3]: 20 mg/kg/day | survival ([3]; range of doses): prolonged survival in a dose-dependent manner | IL-3 dependent erk activation ([4]; IL-3 dependent): not inhibited | Phosphorylation of erk½ ([4]; activated by FLT-3 ligand): inhibited | expansion of RS411 [5]: inhibited expansion | tumor size [6]: dramatically reduced tumor size to almost undetectable | inhibition of FLT-3 ligand increased cell numbers [7]: some inhibition
